In patent US7205403B2, “8-Heteroaryl xanthine adenosine A2B receptor antagonists” (King Pharmaceuticals Research and Development, Inc., priority 2002, dated 2007):
Like-named read-outs stand apart in the source and are kept apart here.

Key:
[1] = molecular target: T1, human A1 adenosine receptor (Homo sapiens, UniProt P30542); assay: [3H]DPCPX binding to human A1 receptors expressed in CHO cells
T1 construct: expressed in transfected cells; host or cells: CHO cells (membranes)
T1 sequence (P30542 1-326): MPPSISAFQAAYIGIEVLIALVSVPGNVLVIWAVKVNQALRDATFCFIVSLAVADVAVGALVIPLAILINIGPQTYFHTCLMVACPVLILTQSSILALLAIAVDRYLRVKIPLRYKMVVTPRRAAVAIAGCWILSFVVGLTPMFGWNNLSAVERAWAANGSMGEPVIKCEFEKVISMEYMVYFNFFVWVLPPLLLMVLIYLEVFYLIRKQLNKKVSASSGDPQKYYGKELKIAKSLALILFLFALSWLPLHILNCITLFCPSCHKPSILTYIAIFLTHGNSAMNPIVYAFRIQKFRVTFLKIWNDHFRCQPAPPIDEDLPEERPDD
Experimental: (§1) The cells were grown adherently and maintained in Dulbecco's modified Eagle's medium with nutrient mixture F12 without nucleosides at 37° C. in 5% CO2/95% air. The cells were washed with phosphate-buffered saline and scraped off flasks in ice cold hypotonic buffer ([…] Tris HCl, 2 mM EDTA, pH 7.4). The cell suspension was homogenized with a Polytron and the homogenate was centrifuged for 30 minutes at 48,000 g. The resultant membrane pellet was re-suspended in 50 mM Tris HCl buffer at pH 7.4 for A1 adenosine receptors; in 50 mM Tris HCl 10 mM MgCl, at pH 7.4 for A2A adenosine receptors; in 50 mM Tris HCl, 10 mM MgCl2, 1 mM EDTA, at pH 7.4 for A3 adenosine receptors and were utilized for binding assays.
Displacement experiments were performed for 120 minutes at 25° C. in 200 μl of buffer containing 1 nM ^3H]-DPCPX 20 μl of diluted membranes (50 μg of protein/assay) and at least 6 to 8 different concentrations of examined compounds.
(§2) The filter bound radioactivity was counted on Top Count (efficiency 57%) with Micro-Scint 20.
(§3) The filter bound radioactivity was counted on a Top Count brand Microplate Scintillation Counter (efficiency 57%) with Micro-Scint 20. […] Inhibitory binding constant. […] Results and Discussion

[2] = molecular target: T2, human A2A adenosine receptor (Homo sapiens, UniProt P29274); assay: [3H]ZM241385 binding to human A2A receptors expressed in CHO cells; conditions: read-out: Ki, [3H]ZM241385 binding to human A2A receptors expressed in CHO cells
T2 construct: expressed in transfected cells; host or cells: CHO cells (membranes)
Experimental: as §1, §2, §3

[3] = molecular target: T3, human A3 adenosine receptor (Homo sapiens, UniProt P0DMS8); assay: [3H]MRE3008F20 binding to human A3 receptors expressed in CHO cells
T3 construct: expressed in transfected cells; host or cells: CHO cells (membranes)
T3 sequence (P0DMS8 1-318): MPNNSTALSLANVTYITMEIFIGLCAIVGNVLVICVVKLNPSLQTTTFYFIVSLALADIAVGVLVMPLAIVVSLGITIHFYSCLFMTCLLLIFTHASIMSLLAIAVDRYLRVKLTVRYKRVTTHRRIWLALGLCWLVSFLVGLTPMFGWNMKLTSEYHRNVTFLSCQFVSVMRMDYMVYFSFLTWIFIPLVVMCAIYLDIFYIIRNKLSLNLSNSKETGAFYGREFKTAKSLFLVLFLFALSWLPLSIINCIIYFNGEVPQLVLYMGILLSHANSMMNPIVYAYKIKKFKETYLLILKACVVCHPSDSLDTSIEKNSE
Experimental: as §1
Binding of [^3H]-MRE3008-F20 to CHO cells transfected with the human recombinant A3 adenosine receptors was performed according to Varani et al., 2000. Competition experiments were carried out in duplicate in a final volume of 250 μl in test tubes containing 1 nM [^3H]-MRE3008-F20, 50 mM Tris HCl buffer, […] MgCl2, pH 7.4 and 100 μl of diluted membranes (50 μg of protein/assay) and at least 6–8 different concentrations of examined ligands for 120 minutes at 4° C.
as §2, §3

[4] = molecular target: T4, human A2B adenosine receptor (Homo sapiens, UniProt P29275); assay: [3H]DPCPX binding to human A2B receptors expressed in HEK293 cells; parameters: host or cells: HEK 293 cells (membranes); conditions: geometric mean (95% confidence interval); >1000 = no appreciable binding; read-out: Ki, [3H]DPCPX binding to human A2B receptors expressed in HEK293 cells
T4 sequence (P29275 1-332): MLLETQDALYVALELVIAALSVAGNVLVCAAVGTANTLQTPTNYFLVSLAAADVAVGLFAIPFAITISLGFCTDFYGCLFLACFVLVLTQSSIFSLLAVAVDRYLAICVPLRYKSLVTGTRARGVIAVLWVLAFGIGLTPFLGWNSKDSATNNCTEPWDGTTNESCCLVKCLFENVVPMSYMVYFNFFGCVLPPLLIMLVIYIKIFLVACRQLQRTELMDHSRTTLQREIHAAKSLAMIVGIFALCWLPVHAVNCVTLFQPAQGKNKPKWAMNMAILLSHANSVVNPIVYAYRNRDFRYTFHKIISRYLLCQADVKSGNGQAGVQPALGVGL
Experimental: HEK 293 cells transfected with the human recombinant A2B adenosine receptor were obtained from Receptor Biology, Inc. (Beltsville, Md. USA).
Binding of 1 [^3H]-DPCPX to HEK 293 cells transfected with the human recombinant A2B adenosine receptors was performed according to the method described by Varani et al., 2000. In particular, assays were carried out for 60 minutes at 25° C. in 100 μl of […] Tris HCl buffer, […] MgCl2, 1 mM EDTA, 0.1 mM benzamidine pH 7.4, 2 IU/ml adenosine deaminase containing 40 nM [^3H]-DPCPX, diluted membranes (20 μg of protein/assay) and at least 6–8 different concentration of tested compounds.
as §2, §3

[5] = geometric mean (95% confidence interval), >1000 = no appreciable binding

T2 sequence (P29274 whole entry): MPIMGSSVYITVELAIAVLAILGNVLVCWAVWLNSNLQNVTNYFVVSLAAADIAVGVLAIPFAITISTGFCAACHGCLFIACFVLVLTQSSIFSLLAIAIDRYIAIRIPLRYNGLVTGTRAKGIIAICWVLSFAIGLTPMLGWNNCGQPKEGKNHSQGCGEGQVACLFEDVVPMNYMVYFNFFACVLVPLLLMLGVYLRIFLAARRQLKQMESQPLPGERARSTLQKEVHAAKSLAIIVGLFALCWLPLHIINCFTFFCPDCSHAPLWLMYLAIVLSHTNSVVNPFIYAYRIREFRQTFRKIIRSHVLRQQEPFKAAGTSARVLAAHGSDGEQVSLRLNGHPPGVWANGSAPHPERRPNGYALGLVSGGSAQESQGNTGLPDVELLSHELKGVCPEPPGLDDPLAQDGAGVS

| SMILES | Ki [1, 5] | Ki [2] | Ki [3] | Ki [4] | Ki [1] | Ki [2, 5] | Ki [3, 5] |
| --- | --- | --- | --- | --- | --- | --- | --- |
| CCCn1c(=O)c2c(nc(/C=C/c3cc(C(=O)OCC)n(C)c3)n2C)n(CCC)c1=O [AS33, ethyl 4-[(E)-2-(7-methyl-1,3-dipropyl-2,6-dioxo-2,3,6,7-tetrahydro-1H-purin-8-yl)vinyl]-1-methyl-1H-pyrrole-2-carboxylate] | – | > 1 µM | > 1 µM | > 1 µM | > 1 µM | – | – |
| Cn1nc(N)cc1-c1nc2c([nH]1)c(=O)n(C)c(=O)n2C [AS38, 8-(3-amino-1-methyl-1H-pyrazol-5-yl)-1,3-dimethyl-3,7-dihydro-1H-purine-2,6-dione] | – | > 1 µM | > 1 µM | 0.175 µM | > 1 µM | – | – |
| CCCn1c(=O)c2[nH]c(-c3cc(NC(=O)Cc4ccc(F)c(F)c4)nn3C)nc2n(CCC)c1=O [AS43, N-[5-(2,6-dioxo-1,3-dipropyl-2,3,6,9-tetrahydro-1H-purin-8-yl)-1-methyl-1H-pyrazol-3-yl]-2-(3,4-difluorophenyl)acetamide] | 1.9 µM | > 1 µM | > 1 µM | 0.13 µM | – | – | – |
| CCCn1c(=O)c2[nH]c(-c3cc(NC(=O)Nc4ccc(OC)cc4)nn3C)nc2n(CCC)c1=O [AS49, 1-[5-(2,6-Dioxo-1,3-dipropyl-2,3,6,7-tetrahydro-1H-purin-8-yl)-1-methyl-1H-pyrazol-3-yl]-3-(4-methoxy-phenyl)-urea] | 1.44 µM | > 1 µM | > 1 µM | 0.081 µM | – | – | – |
| CCCn1c(=O)c2[nH]c(-c3cc(NC(=O)Nc4ccc(N(C)C)cc4)nn3C)nc2n(CCC)c1=O [AS53, N-[4-(dimethylamino)phenyl]-N'-[5-(2,6-dioxo-1,3-dipropyl-2,3,6,7-tetrahydro-1H-purin-8-yl)-1-methyl-1H-pyrazol-3-yl]urea] | 2.41 µM | > 1 µM | > 1 µM | 0.059 µM | – | – | – |
| CCCn1c(=O)c2[nH]c(-c3cc(NC(=O)Nc4cccc(OC)c4)nn3C)nc2n(CCC)c1=O [AS55, N-[5-(2,6-dioxo-1,3-dipropyl-2,3,6,7-tetrahydro-1H-purin-8-yl)-1-methyl-1H-pyrazol-3-yl]-N'-(3-methoxyphenyl)urea] | 1.99 µM | > 1 µM | > 1 µM | 0.09 µM | – | – | – |
| CCCn1c(=O)c2[nH]c(-c3cc(OCC(=O)Nc4ccc(C)cc4)nn3C)nc2n(CCC)c1=O [AS59, N-(4-methylphenyl)-2-{[5-(1,3-dipropyl-2,6-dioxo-2,3,6,7-tetrahydro-1H-purin-8-yl)-1-methyl-1H-pyrazol-3-yl]oxy}acetamide] | > 1 µM | – | – | 1.01 µM | – | > 1 µM | > 1 µM |
| CCCn1c(=O)c2nc(-c3cc(OCC(=O)Nc4ccc(Br)cc4)n(C)n3)[nH]c2n(CCC)c1=O [AS60, N-(4-bromophenyl)-2-{[3-(2,6-dioxo-1,3-dipropyl-2,3,6,9-tetrahydro-1H-purin-8-yl)-1-methyl-1H-pyrazol-5-yl]oxy}acetamide] | 0.168 µM | > 1 µM | > 1 µM | 0.093 µM | – | – | – |

The next lines start with results.

| Ki [1, 5] | Ki [2] | Ki [3] | Ki [4] | Ki [1] | SMILES | Ki [2, 5] | Ki [3, 5] |
| --- | --- | --- | --- | --- | --- | --- | --- |
| 0.2 µM | > 1 µM | > 1 µM | 0.088 µM | – | CCCn1c(=O)c2[nH]c(-c3cc(NC(=O)Cc4ccc(F)cc4)nn3C)nc2n(CCC)c1=O [AS22, N-[5-(2,6-dioxo-1,3-dipropyl-2,3,6,9-tetrahydro-1H-purin-8-yl)-1-methyl-1H-pyrazol-3-yl]-2-(4-fluorophenyl)acetamide] | – | – |
| 0.85 µM | > 1 µM | > 1 µM | 0.1 µM | – | CCCn1c(=O)c2[nH]c(-c3cc(NC(=O)Cc4ccc(OC)cc4)nn3C)nc2n(CCC)c1=O [AS23, 2-(4-methoxyphenyl)-N-[5-(2,6-dioxo-1,3-dipropyl-2,3,6,9-tetrahydro-1H-purin-8-yl)-1-methyl-1H-pyrazol-3-yl]acetamide] | – | – |
| 4.48 µM | > 1 µM | > 1 µM | 0.16 µM | – | CCCn1c(=O)c2[nH]c(-c3cc(NC(=O)Cc4cccc(Cl)c4)nn3C)nc2n(CCC)c1=O [AS24, N-[5-(2,6-dioxo-1,3-dipropyl-2,3,6,9-tetrahydro-1H-purin-8-yl)-1-methyl-1H-pyrazol-3-yl]-2-(3-chlorophenyl)acetamide] | – | – |
| 3.23 µM | > 1 µM | > 1 µM | 0.05 µM | – | CCCn1c(=O)c2[nH]c(-c3cc(NC(=O)Cc4cccc(F)c4)nn3C)nc2n(CCC)c1=O [AS25, N-[5-(2,6-dioxo-1,3-dipropyl-2,3,6,9-tetrahydro-1H-purin-8-yl)-1-methyl-1H-pyrazol-3-yl]-2-(3-fluorophenyl)acetamide] | – | – |
| 0.1 µM | > 1 µM | > 1 µM | 0.09 µM | – | CCCn1c(=O)c2[nH]c(-c3cc(NC(=O)Cc4ccc(OCc5cccc(C(F)(F)F)c5)cc4)nn3C)nc2n(CCC)c1=O [AS30, N-[5-(2,6-dioxo-1,3-dipropyl-2,3,6,9-tetrahydro-1H-purin-8-yl)-1-methyl-1H-pyrazol-3-yl]-2-(4-{[3-(trifluoromethyl)benzyl]oxy}phenyl)acetamide] | – | – |
| 0.163 µM | > 1 µM | > 1 µM | 0.111 µM | – | CCCn1c(=O)c2[nH]c(-c3cc(NC(=O)Cc4ccc(OCc5ccc([N+](=O)[O-])cc5)cc4)nn3C)nc2n(CCC)c1=O [AS31, N-[5-(2,6-dioxo-1,3-dipropyl-2,3,6,9-tetrahydro-1H-purin-8-yl)-1-methyl-1H-pyrazol-3-yl]-2-(4-{4-nitro-benzyloxy}phenyl)acetamide] | – | – |
| 0.746 µM | > 1 µM | > 1 µM | 0.19 µM | – | CCCn1c(=O)c2[nH]c(-c3cc(NC(=O)Cc4ccc(C(F)(F)F)cc4)nn3C)nc2n(CCC)c1=O [AS32, N-[5-(2,6-dioxo-1,3-dipropyl-2,3,6,9-tetrahydro-1H-purin-8-yl)-1-methyl-1H-pyrazol-3-yl]-2-[4-(trifluoromethyl)phenyl]acetamide] | – | – |
| – | 2.43 µM | > 1 µM | 0.1 µM | 1.79 µM | CCCn1c(=O)c2[nH]c(-c3cc(NC(=O)Cc4ccc(OCc5ccccc5)c(OC)c4)nn3C)nc2n(CCC)c1=O [AS56, 2-[4-(benzyloxy)-3-methoxyphenyl]-N-[5-(2,6-dioxo-1,3-dipropyl-2,3,6,9-tetrahydro-1H-purin-8-yl)-1-methyl-1H-pyrazol-3-yl]acetamide] | – | – |
